ChEMBL document CHEMBL5608184, “Discovery and mechanistic insights into thieno[3,2-d]pyrimidine and heterocyclic fused pyrimidines inhibitors targeting tubulin for cancer therapy” (Eur J Med Chem, 2024)

Columns and labels:
[1] = test system: SK-OV-3; assay: Induction of cell cycle arrest at G2/M phase in human SK-OV-3 cells at 5 nM incubated for 24 hrs by PI staining based flow cytometry (reference value: 30.13 %); assay type: functional
[2] = test system: SK-OV-3; assay: Induction of apoptosis in human SK-OV-3 cells assessed as viable cells at 2.5 nM incubated for 48 hrs by Annexin V-APC-A/7-AAD-A staining based flow cytometry (reference value: 97.17 %); assay type: functional; conditions: read-out: Activity

COc1ccc(N(C)c2nc(Cl)nc3ccn(C)c23)cc1
Activity [1]: 87.47%

COc1ccc2c(c1)NC(=O)CN2c1nc(Cl)nc2ccsc12
viability at 0.0025 µM [2]: 53.9%
